{
  "source": "patent US11136291B2",
  "about": "“Antifungal compounds and uses thereof” (Dana-Farber Cancer Institute, Inc., priority 2016, dated 2021)",
  "key": {"[1]": {"test_system": "C. glabrata adherence to CHO-Lec2 cells", "test": "Yeast adherence to epithelial CHO-Lec2 cells", "details": "PDR1^L280F mutant; 30 μM iKIX1 or 40 μM ketoconazole"}, "[2]": {"test_system": "azole-activated and Pdr1-dependent genes", "test": "RNA-Seq", "details": "10 μM iKIX1 with 40 μM ketoconazole", "protocol": "Cells were grown in YPD at 30° C. with shaking overnight (24 hours) then washed twice in 2× volume of Milli-Q water before being resuspended in YP to an OD600 of 0.8. Cells were grown with shaking overnight (˜16 hours) before splitting and treatment with vehicle (DMSO) or 10 μM iKIX1. Cells were grown with shaking another 8 hours before harvest of non-azole induced samples. Remaining cultures were induced to a final concentration of 40 μM ketoconazole and harvested after 15 minutes by centrifugation at 4,000 rpm for 4 minutes at 4° C. Media was aspirated and cells were snap frozen on dry ice. RNA isolation was performed as previously described (see, e.g., Martin R, Moran G P, Jacobsen I D, Heyken A, Domey J, Sullivan D J, et al. The Candida albicans-specific gene EED1 encodes a key regulator of hyphal extension. PLoS One.6(4):e18394. PMCID: 3075580); RNA was then DNase treated using recombinant DNasel. […] Sequencing was carried out on Illumina HiSeq 2500, resulting in approximately 17.68 million of 50 bp paired-end reads per sample. STAR aligner was used to map sequencing reads to transcripts in the reference genomes (S288C for Saccharomyces cerevisiae and draft genome from isolate DSY562 for Candida glabrata) (see, e.g., Dobin A, Davis C A, Schlesinger F, Drenkow J, Zaleski C, Jha S, et al. STAR: ultrafast universal RNA-seq aligner. Bioinformatics.29(1):15-21. PMCID: 3530905). […]"}},
  "note": "Entries after “also recorded” stand apart in the source; their conditions may differ.",
  "data": [
    {"smiles": "N#CCC(=O)NNC(=S)Nc1ccc(Cl)c(Cl)c1", "note": "[iKIX1, 2-(2-Cyanoacetyl)-N-(3,4-dichlorophenyl)hydrazinecarbothioamide]", "values": [
      {"measurement": "relative adherence to epithelial cells", "setting": "[1]", "result": "reduce adherence; also recorded: reduced adherence to levels similar to a PDR1 wild-type strain"},
      {"measurement": "expression of azole-activated and Pdr1-dependent genes", "setting": "[2]", "result": "strongly blunted expression of many azole-activated and Pdr1-dependent genes"}
    ]}
  ]
}
